Source: the supplement of paper PMC8497498

Columns and labels:
[1] = test system: Plasmodium cynomolgi Berok K4 asexual blood stage; assay: EC50 asexual blood stage growth
Procedure: (§1)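 The Reference Compound Library was tested by 10-point 3-fold dose response against P. cynomolgi Berok K4 asexual blood stages (SYBR proliferation assay, mefloquine background control). Culture medium contained 0.5% AlbuMAX or 20% M. fascicularis serum. P. falciparum 3D7 was tested in a 72-h SYBR Green assay with 0.5% AlbuMAX. Values are geometric mean EC50 over independent experiments; 10 uM is the top dose.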

[2] = test system: Plasmodium falciparum 3D7 asexual blood stage; assay: EC50 asexual blood stage growth; conditions: serum: 0.5% AlbuMAX
Procedure: as §1

[3] = serum: 20% M. fascicularis serum

SMILES | EC50 asexual blood stage growth ([1]; serum: 0.5% AlbuMAX) | EC50 asexual blood stage growth [1, 3] | EC50 asexual blood stage growth [2]
CC1CCC2C(C)C(=O)OC3OC4(C)CCC1C32OO4 (stereo not given) [Artemisinin] | 7.3 nM | 9.4 nM | 94.8 nM
CC1CCC2C(C)C(N3CCS(=O)(=O)CC3)OC3OC4(C)CCC1C32OO4 (stereo not given) [Artemisone] | 1 nM | 0.6 nM | 5 nM
CC1CCC2C(C)C(O)OC3OC4(C)CCC1C32OO4 (stereo not given) [Artenimol] | 0.6 nM | 0.5 nM | 6.5 nM
CC(C)(N)CNC(=O)CC1CCC2(CC1)OOC1(O2)C2CC3CC(C2)CC1C3 (stereo not given) [Arterolane] | 1.4 nM | 1 nM | 7.8 nM
CC1CCC2C(C)C(OC(=O)CCC(=O)O)OC3OC4(C)CCC1C32OO4 (stereo not given) [Artesunate] | 6.2 nM | 3 nM | 41.3 nM
O=C1C(O)=C([C@H]2CC[C@H](c3ccc(Cl)cc3)CC2)C(=O)c2ccccc21 [Atovaquone] | 1 nM | 1.7 nM | 0.9 nM
CCN(CC)CCCC(C)Nc1ccnc2cc(Cl)ccc12 (stereo not given) [Chloroquine] | 183 nM | 32.8 nM | 82.2 nM
CC1Cc2c([nH]c3cc(Cl)c(F)cc23)C2(N1)C(=O)Nc1ccc(Cl)cc12 (stereo not given) [Cipargamin] | 3.3 nM | 15.4 nM | 1.4 nM
CC1CCCC(CC2Cc3cc(O)cc(O)c3C(=O)O2)O1 (stereo not given) [Cladosporin] | 124 nM | 1430 nM | 75.8 nM
CCC[C@@H]1C[C@@H](C(=O)N[C@@H]([C@H]2O[C@H](SC)[C@H](O)[C@@H](O)[C@H]2O)[C@H](C)Cl)N(C)C1 [Clindamycin] | > 10000 nM | 9210 nM | > 10000 nM
CC1CC(C)C(=O)C(C(O)CC2CC(=O)NC(=O)C2)C1 (stereo not given) [Cyclohexamide] | 35.2 nM | 40.1 nM | 282 nM
Cc1cc(Nc2ccc(C(F)(F)F)nc2)n2nc(C(C)(F)F)nc2n1 [DSM421] | 60.5 nM | 59.5 nM | 35.1 nM
Nc1ccc(S(=O)(=O)c2ccc(N)cc2)cc1 [Dapsone] | > 10000 nM | > 10000 nM | > 10000 nM
CC(=O)N(O)CCCCCNC(=O)CCC(=O)N(O)CCCCCNC(=O)CCC(=O)N(O)CCCCCN [Deferoxamine] | > 10000 nM | > 10000 nM | > 10000 nM
CC12CCC3C(CC=C4CC(OS(=O)(=O)O)CCC43C)C1CCC2=O (stereo not given) [Dehydroepiandrosterone sulphate] | > 10000 nM | > 10000 nM | > 10000 nM
CC1CCC2C(C)C(O)OC3OC4(C)CCC1C32O4 (stereo not given) [Deoxydihydroartemisinin] | > 10000 nM | > 10000 nM | > 10000 nM
C[C@H]1c2cccc(O)c2C(=O)C2=C(O)[C@]3(O)C(=O)C(C(N)=O)=C(O)[C@@H](N(C)C)C3[C@@H](O)C21 (stereo not given in full) [Doxycycline] | 9360 nM | 8350 nM | 9930 nM
CN(C)CC1=C(CNc2ccnc3cc(Cl)ccc23)C=[C-]C1.[C-]1=CC=CC1.[Fe+2] [Ferroquine] | 43.3 nM | 36.2 nM | 11.5 nM
O=CN(O)CCCP(=O)(O)O [Fosmidomycin] | > 10000 nM | 6690 nM | > 10000 nM
N=C(N)c1ccc(-c2ccc(-c3ccc(C(=N)N)cc3)o2)cc1 [Furamidine] | 4670 nM | 864 nM | 540 nM
